Key:
[1] = tested on: diamondback moth (Plutella xylostella (L.)); assay: Test A: control of diamondback moth on mustard plant, spray; format: in vivo; conditions: sprayed at 250 ppm; assessed after 6 days
Procedure: (§1) Test compounds were formulated using a solution containing 10% acetone, […] and 300 ppm Activator 909 non-ionic surfactant (Loveland Products, Loveland, Colorado, USA). The formulated compounds were applied in 1 mL of liquid through an atomizer nozzle positioned 1.27 cm (0.5 inches) above the top of each test unit. Test compounds were sprayed at the rates indicated, and each test was replicated three times.
For evaluating control of diamondback moth (Plutella xylostella (L.)) the test unit consisted of a small open container with a 12-14-day-old mustard plant inside. This was pre-infested with ˜50 neonate larvae that were dispensed into the test unit via corn cob grits using an inoculator. The larvae moved onto the test plant after being dispensed into the test unit.
Test compounds were formulated and sprayed at 250 ppm. After spraying of the formulated test compound, each test unit was allowed to dry for 1 hour and then a black, screened cap was placed on top. The test units were held for 6 days in a growth chamber at 25° C. and 70% relative humidity. Plant feeding damage was then visually assessed based on foliage consumed, and larvae were assessed for mortality.

[2] = tested on: corn planthopper (Peregrinus maidis (Ashmead)); assay: whole plant or invertebrate; format: in vivo; conditions: for mortality at 50 ppm / mortality at 250 ppm / mortality at 10 ppm: Peregrinus maidis, 144 h, 6 days; for Control Efficacy CPH: corn planthopper
In short: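 Corn plants 3-4 days old were sprayed at 250, 50 and/or 10 ppm in 10% acetone with 300 ppm non-ionic surfactant, three replicates, contact and/or systemic exposure. After 1 h drying, ~15-20 nymphs (18-to-21-day-old) were added; mortality assessed visually after 6 days at 22-24° C, 50-70% RH.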

[3] = tested on: green peach aphid (Myzus persicae (Sulzer)); assay: Test D: control of green peach aphid on radish plant, spray; format: in vivo; conditions: for Control Efficacy GPA: green peach aphid
In short: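 Radish plants (12-15 days old) pre-infested with 30-40 aphids, sprayed with compound in 10% acetone/water with 300 ppm non-ionic surfactant at 250 and/or 50 ppm, three replicates. Held 6 days at 19-21 °C, 50-70% relative humidity, then mortality scored visually.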

[4] = tested on: cotton melon aphid (Aphis gossypii (Glover)); assay: whole plant or invertebrate; format: in vivo; conditions: for mortality at 50 ppm / mortality at 250 ppm: Aphis gossypii, 144 h, 6 days; for Control Efficacy CMA: cotton melon aphid
In short: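 Compounds were formulated in a solution of 10% acetone, […] and 300 ppm Activator 909 non-ionic surfactant and sprayed as 1 mL through an atomizer nozzle 1.27 cm (0.5 inches) above each test unit, with three replicates. Units were pre-infested with 30-40 aphids on leaf pieces via the cut-leaf method, soil covered with sand, then kept 6 days at 19° C. and 70% relative humidity before visual mortality scoring.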

[5] = tested on: sweetpotato whitefly (Bemisia tabaci (Gennadius)); assay: Test F: control of sweetpotato whitefly on cotton plant, spray; format: in vivo; conditions: 312 h, 13 days
In short: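 Cotton plants 12–14 days old, trimmed to one true leaf and carrying at least 15 whitefly eggs, were sprayed at 250 and/or 50 ppm in acetone/water with non-ionic surfactant, three replicates. After 13 days at 28° C and 50-70% relative humidity, insect mortality was scored visually.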

[6] = tested on: Western Flower Thrips (Frankliniellla occidentalis (Pergande)); assay: Test G: control of Western Flower Thrips on Soleil bean plant, spray; format: in vivo; conditions: sprayed at 250 ppm; 6 days
Procedure: as §1
For evaluating control of the Western Flower Thrips (Frankliniellla occidentalis (Pergande)) through contact and/or systemic means, the test unit consisted of a small open container with a 5-7-day-old Soleil bean plant inside.
Test compounds were formulated and sprayed at 250 ppm. After spraying, the test units were allowed to dry for 1 hour, and then about 60 thrips (adults and nymphs) were added to each unit. A black, screened cap was placed on top, and the test units were held for 6 days at 25° C. and 45-55% relative humidity. Each test unit was then visually assessed for plant damage and insect mortality.

[7] = tested on: potato leafhopper (Empoasca fabae (Harris)); assay: Test C: control of potato leafhopper on Soleil bean plant, spray; format: in vivo; conditions: for mortality at 250 ppm: Empoasca fabae, 144 h, 6 days; for Control Efficacy PLH: potato leafhopper
Procedure: as §1
For evaluating control of potato leafhopper (Empoasca fabae (Harris)) through contact and/or systemic means, the test unit consisted of a small open container with a 5-6-day-old Soleil bean plant (primary leaves emerged) inside. White sand was added to the top of the soil, and one of the primary leaves was excised prior to application of the test compound.
[…] After spraying of the formulated test compound, the test units were allowed to dry for 1 hour before they were post-infested with 5 potato leafhoppers (18-to-21-day-old adults). A black, screened cap was placed on the top of the test unit, and the test units were held for 6 days in a growth chamber at 20° C. and 70% relative humidity. Each test unit was then visually assessed for insect mortality.

[8] = Vapor pressure estimated by GC/MS retention time correlation; format: physicochemical
Procedure: The procedures to obtain the vapor pressure values for both compounds are as follows: A solution of the test compound was prepared in acetonitrile at a concentration of 50 μg/mL and was then analyzed by gas chromatography/mass spectrometry (GC/MS). A linear correlation of retention times vs. known vapor pressure values of standard compounds is used to obtain an estimate of the vapor pressure of the test compounds by using interpolation. Detection and retention time of the subject compounds are confirmed by interpretation of the mass spectrum.

[9] = Myzus persicae, 144 h, sprayed at 250 ppm, 6 days

For `Fc1cncc(-n2cccn2)c1C(F)c1ccc(SC(F)(F)F)cc1` (stereo not shown) [Compound 1], the “control efficacy (40% or less feeding damage and/or 100% mortality)” value [1] was “very good to excellent levels of control efficacy”, the mortality at 50 ppm ([2]; sprayed at 50 ppm) was no less than 80% and the mortality at 250 ppm ([2]; sprayed at 250 ppm) was no less than 80%. For the same compound, the mortality at 250 ppm [3, 9] was no less than 80%, the mortality at 50 ppm ([4]; sprayed at 50 ppm) was no less than 80% and the mortality at 250 ppm ([4]; sprayed at 250 ppm) was no less than 80%. The mortality at 50 ppm ([5]; sprayed at 50 ppm) was no less than 70%, the mortality at 250 ppm ([5]; sprayed at 250 ppm) was no less than 70% and the “control efficacy (30% or less plant damage and/or 100% mortality)” value [6] was “very good to excellent levels of control efficacy”.
In the case of `Fc1cncc(-n2nccn2)c1C(F)c1ccc(OC(F)(F)F)cc1` (stereo not shown) [Compound 8], the “control efficacy compared with compound A” value ([2]; CPH, down to 2 ppm) is reported as “significantly higher control efficacy than compound A”, the mortality at 50 ppm ([2]; sprayed at 50 ppm) is reported as no less than 80% and the mortality at 250 ppm ([2]; sprayed at 250 ppm) is reported as no less than 80%. For the same compound, the Control Efficacy CPH ([2]; sprayed at 2 ppm) was 89%, the Control Efficacy CPH ([2]; sprayed at 10 ppm) was 95% and the Control Efficacy CPH ([2]; sprayed at 50 ppm) was 100%. The Control Efficacy CPH ([2]; sprayed at 250 ppm) was 100%, the mortality at 250 ppm ([7]; sprayed at 250 ppm) was no less than 80% and the “control efficacy compared with compound A” value ([7]; PLH, at 250 ppm) was “significantly higher control efficacy than compound A”. The “Control Efficacy PLH” value ([7]; sprayed at 50 ppm) was 0, the “Control Efficacy PLH” value ([7]; sprayed at 250 ppm) was 93 and the “control efficacy compared with compound A” value ([3]; GPA, down to 2 ppm) was “significantly higher control efficacy than compound A”. The mortality at 50 ppm ([3]; Myzus persicae, 144 h, sprayed at 50 ppm, 6 days) was no less than 80%, the mortality at 250 ppm [3, 9] was no less than 80% and the Control Efficacy GPA ([3]; sprayed at 2 ppm) was 100%. The Control Efficacy GPA ([3]; sprayed at 10 ppm) was 94%, the Control Efficacy GPA ([3]; sprayed at 50 ppm) was 100% and the Control Efficacy GPA ([3]; sprayed at 250 ppm) was 100%. For the same compound, the mortality at 50 ppm ([4]; sprayed at 50 ppm) was no less than 80%, the mortality at 250 ppm ([4]; sprayed at 250 ppm) was no less than 80% and the “control efficacy compared with compound A” value ([4]; CMA, down to 2 ppm) was “significantly higher control efficacy than compound A”. It also gave a Control Efficacy CMA ([4]; sprayed at 2 ppm) of 79%, a Control Efficacy CMA ([4]; sprayed at 10 ppm) of 88% and a Control Efficacy CMA ([4]; sprayed at 50 ppm) of 96%. The Control Efficacy CMA ([4]; sprayed at 250 ppm) was 80%, the “Vapor Pressure” value [8] was 6.04E−06 and the “vapor pressure relative to compound A” value ([8]; compared with compound A) was roughly 1000 times lower.
With `Fc1cncc(-c2ncco2)c1C(F)c1ccc(OC(F)(F)F)cc1` (stereo not shown) [Compound 32] the “control efficacy (40% or less feeding damage and/or 100% mortality)” value [1] was “very good to excellent levels of control efficacy”, the mortality at 10 ppm ([2]; sprayed at 10 ppm) was no less than 80% and the mortality at 50 ppm ([2]; sprayed at 50 ppm) was no less than 80%. For the same compound, the mortality at 250 ppm ([2]; sprayed at 250 ppm) was no less than 80%, the mortality at 250 ppm ([7]; sprayed at 250 ppm) was no less than 80% and the mortality at 50 ppm ([4]; sprayed at 50 ppm) was no less than 80%. The mortality at 250 ppm ([4]; sprayed at 250 ppm) was no less than 80% and the “control efficacy (30% or less plant damage and/or 100% mortality)” value [6] was “very good to excellent levels of control efficacy”.
For `Fc1cncc(-c2nccs2)c1C(F)c1ccc(OC(F)(F)F)cc1` (stereo not shown) [Compound 33], the “control efficacy (40% or less feeding damage and/or 100% mortality)” value [1] was “very good to excellent levels of control efficacy”, the mortality at 10 ppm ([2]; sprayed at 10 ppm) was no less than 80% and the mortality at 50 ppm ([2]; sprayed at 50 ppm) was no less than 80%. For the same compound, the mortality at 250 ppm ([2]; sprayed at 250 ppm) was no less than 80%, the mortality at 250 ppm ([7]; sprayed at 250 ppm) was no less than 80% and the mortality at 50 ppm ([4]; sprayed at 50 ppm) was no less than 80%. For the same compound, the mortality at 250 ppm ([4]; sprayed at 250 ppm) was no less than 80% and the “control efficacy (30% or less plant damage and/or 100% mortality)” value [6] was “very good to excellent levels of control efficacy”.

From patent publication US12568969B2, “Pyridine compounds for controlling invertebrate pests” (FMC Corporation, priority 2020, dated 2026)
